Laboratory results as given in ChEMBL document CHEMBL3774368, “1,2,4-Triazolyl octahydropyrrolo[2,3-b]pyrroles: A new series of potent and selective dopamine D3 receptor antagonists” (Bioorg Med Chem, 2016).

What was measured:
D(2) dopamine receptor = D(2) dopamine receptor (Homo sapiens, UniProt P14416); experiment: Displacement of [3H]-spiperone from human dopamine D2 receptor expressed in CHO-K1 cell membranes after 120 mins by liquid scintillation counter method
[1] = molecular target: Voltage-gated inwardly rectifying potassium channel KCNH2 (Homo sapiens, UniProt Q12809); experiment: Inhibition of human ERG tail current expressed in HEK293 cells after 5 mins by patch clamp assay
D(3) dopamine receptor = D(3) dopamine receptor (Homo sapiens, UniProt P35462); experiment: Displacement of [3H]-spiperone from human dopamine D3 receptor expressed in CHO-K1 cell membranes after 90 mins by liquid scintillation counter method
D(3) dopamine receptor, sequence (P35462 whole entry): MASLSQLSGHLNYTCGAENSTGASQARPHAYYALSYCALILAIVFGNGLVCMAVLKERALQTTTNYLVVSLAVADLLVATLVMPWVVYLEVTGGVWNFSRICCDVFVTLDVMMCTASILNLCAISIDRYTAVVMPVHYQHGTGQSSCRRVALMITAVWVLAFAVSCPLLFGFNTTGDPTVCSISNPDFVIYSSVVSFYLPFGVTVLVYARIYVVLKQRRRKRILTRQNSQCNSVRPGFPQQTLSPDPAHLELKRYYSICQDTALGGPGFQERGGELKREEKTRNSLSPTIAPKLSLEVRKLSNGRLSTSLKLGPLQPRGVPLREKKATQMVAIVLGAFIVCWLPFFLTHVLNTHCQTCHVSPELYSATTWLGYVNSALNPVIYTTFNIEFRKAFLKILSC

Voltage-gated inwardly rectifying potassium channel KCNH2, sequence (Q12809 whole entry): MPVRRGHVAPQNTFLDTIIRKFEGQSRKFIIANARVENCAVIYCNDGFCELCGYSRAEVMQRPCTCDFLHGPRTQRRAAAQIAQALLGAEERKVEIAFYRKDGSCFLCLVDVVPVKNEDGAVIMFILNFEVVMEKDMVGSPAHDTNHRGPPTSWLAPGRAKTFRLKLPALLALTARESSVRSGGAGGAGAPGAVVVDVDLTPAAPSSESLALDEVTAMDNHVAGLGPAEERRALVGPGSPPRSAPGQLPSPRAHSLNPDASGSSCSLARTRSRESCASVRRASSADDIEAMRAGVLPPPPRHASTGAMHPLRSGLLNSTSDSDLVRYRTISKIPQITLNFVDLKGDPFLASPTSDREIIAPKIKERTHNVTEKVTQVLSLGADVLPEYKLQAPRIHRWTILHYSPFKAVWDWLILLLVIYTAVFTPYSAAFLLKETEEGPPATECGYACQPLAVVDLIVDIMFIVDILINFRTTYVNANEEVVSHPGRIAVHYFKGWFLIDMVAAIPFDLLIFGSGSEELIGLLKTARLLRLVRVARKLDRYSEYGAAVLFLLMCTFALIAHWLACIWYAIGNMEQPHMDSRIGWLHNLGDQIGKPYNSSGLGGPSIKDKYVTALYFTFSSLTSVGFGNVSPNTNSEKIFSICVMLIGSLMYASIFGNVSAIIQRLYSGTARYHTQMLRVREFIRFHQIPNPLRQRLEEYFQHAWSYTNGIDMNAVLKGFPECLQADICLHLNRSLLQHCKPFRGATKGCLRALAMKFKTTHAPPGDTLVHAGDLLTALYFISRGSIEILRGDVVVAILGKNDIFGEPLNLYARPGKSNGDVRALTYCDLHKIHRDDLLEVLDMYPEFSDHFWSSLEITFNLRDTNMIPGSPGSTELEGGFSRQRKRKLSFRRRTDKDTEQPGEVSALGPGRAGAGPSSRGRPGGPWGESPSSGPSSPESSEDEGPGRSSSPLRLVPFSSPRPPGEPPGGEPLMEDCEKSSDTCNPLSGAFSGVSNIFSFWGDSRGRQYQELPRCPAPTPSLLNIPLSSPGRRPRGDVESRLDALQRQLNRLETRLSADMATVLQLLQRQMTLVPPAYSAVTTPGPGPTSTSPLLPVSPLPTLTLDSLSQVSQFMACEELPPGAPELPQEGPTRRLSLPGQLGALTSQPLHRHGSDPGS
D(2) dopamine receptor, sequence (P14416 whole entry): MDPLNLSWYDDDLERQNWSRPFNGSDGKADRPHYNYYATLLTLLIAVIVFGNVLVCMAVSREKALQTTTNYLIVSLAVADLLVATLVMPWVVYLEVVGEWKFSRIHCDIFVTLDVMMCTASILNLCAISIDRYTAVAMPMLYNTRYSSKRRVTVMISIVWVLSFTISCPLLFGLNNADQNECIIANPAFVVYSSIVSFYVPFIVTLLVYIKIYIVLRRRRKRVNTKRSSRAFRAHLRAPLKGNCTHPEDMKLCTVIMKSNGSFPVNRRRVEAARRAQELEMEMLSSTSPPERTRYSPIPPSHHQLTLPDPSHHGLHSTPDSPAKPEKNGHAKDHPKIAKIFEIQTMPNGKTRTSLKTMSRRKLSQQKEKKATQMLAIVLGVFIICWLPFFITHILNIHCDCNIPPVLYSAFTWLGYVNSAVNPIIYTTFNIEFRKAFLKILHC

## Cc1ncoc1-c1nnc(SCCCN2CC3CCN(c4ccc(C(F)(F)F)cc4F)C3C2)n1C (racemic)
D(2) dopamine receptor
  Ki: 100 nM
[1]
  IC50: 15800 nM
D(3) dopamine receptor
  Ki: 2 nM

## Cc1ncoc1-c1nnc(SCCCN2CC3CCCN(c4ccc(C(F)(F)F)cc4)C3C2)n1C (racemic)
D(3) dopamine receptor
  Ki: 12.6 nM

## Cn1c(SCCCN2CC3CCN(c4ccc(F)cc4)C3C2)nnc1-c1cc[nH]c(=O)c1 (racemic)
D(2) dopamine receptor
  Ki: 631 nM

## Cc1ccccc1N1CCC2CN(CCCSc3nnc(-c4cnccn4)n3C)CC21 (racemic)
D(3) dopamine receptor
  Ki: 126 nM

## Cn1c(SCCCN2CC3CCN(c4ccc(C(F)(F)F)cc4)C3C2)nnc1-c1cc[nH]c(=O)c1 (racemic)
D(2) dopamine receptor
  Ki: 631 nM
[1]
  IC50: 1260 nM
D(3) dopamine receptor
  Ki: 7.94 nM

## Cn1c(SCCCN2CC3CCN(c4ccccc4C(F)(F)F)C3C2)nnc1-c1cccnc1 (racemic)
D(2) dopamine receptor
  Ki: 794 nM

## Cc1ncoc1-c1nnc(SCCCN2CC3CCN(c4ccc(C(F)(F)F)cc4)C3C2)n1C (racemic)
D(3) dopamine receptor
  Ki: 1.58 nM

## Cn1c(SCCCN2CC3CCN(c4ccc(C(F)(F)F)cc4)C3C2)nnc1N1CCOCC1 (stereo in doubt; 61a)
D(3) dopamine receptor
  Ki: 3.16 nM

## Cc1ncoc1-c1nnc(SCCCN2CC3CCN(c4c(F)cccc4F)C3C2)n1C (racemic)
D(3) dopamine receptor
  Ki: 2.51 nM

## Cc1ncoc1-c1nnc(SCCCN2CC3CCN(c4ccccc4OC(F)(F)F)C3C2)n1C (racemic)
D(2) dopamine receptor
  Ki: 20 nM
D(3) dopamine receptor
  Ki: 1 nM

## Cn1c(SCCCN2CC3CCN(c4ccc(F)cc4F)C3C2)nnc1-c1cnccn1 (racemic)
D(2) dopamine receptor
  Ki: 398 nM
D(3) dopamine receptor
  Ki: 10 nM

## CC(C)Oc1ccccc1N1CCC2CN(CCCSc3nnc(-c4cnccn4)n3C)CC21 (racemic)
D(2) dopamine receptor
  Ki: 251 nM
D(3) dopamine receptor
  Ki: 10 nM

## Cn1c(SCCCN2CC3CCN(c4ccccc4C(F)(F)F)C3C2)nnc1-c1cccnc1 (stereo in doubt; 52b)
D(2) dopamine receptor
  Ki: 1260 nM

## Cc1ncoc1-c1nnc(SCCCN2CC3CCN(c4ccc(F)cc4)C3C2)n1C (racemic)
D(2) dopamine receptor
  Ki: 200 nM

## Cn1c(SCCCN2CC3CCN(c4ccc(C(F)(F)F)cc4)C3C2)nnc1-c1cccnc1 (racemic)
D(3) dopamine receptor
  Ki: 3.16 nM

## Cn1c(SCCCN2CC3CCN(c4cccc(C#N)c4)C3C2)nnc1-c1cnccn1 (racemic)
D(2) dopamine receptor
  Ki: 100 nM
D(3) dopamine receptor
  Ki: 2 nM

## Cn1c(SCCCN2CC3CCN(c4ccc(OC(F)(F)F)cc4)C3C2)nnc1-c1cnccn1 (racemic)
D(2) dopamine receptor
  Ki: 316 nM
D(3) dopamine receptor
  Ki: 12.6 nM

## Cn1c(SCCCN2CC3CCN(c4ccccc4C(F)(F)F)C3C2)nnc1-c1ccncc1 (racemic)
D(2) dopamine receptor
  Ki: 251 nM
D(3) dopamine receptor
  Ki: 5.01 nM

## Cn1c(SCCCN2CC3CCN(c4cccc(C(F)(F)F)c4)C3C2)nnc1-c1cnccn1 (racemic)
D(2) dopamine receptor
  Ki: 31.6 nM
D(3) dopamine receptor
  Ki: 0.2 nM

## Cn1c(SCCCN2CC3CCN(c4ccc(C#N)cc4)C3C2)nnc1-c1cnccn1 (racemic)
D(2) dopamine receptor
  Ki: 6310 nM
D(3) dopamine receptor
  Ki: 126 nM

## Cn1c(SCCCN2CC3CCN(c4ccc(F)cc4)C3C2)nnc1-c1ccn(C)c(=O)c1 (racemic)
D(2) dopamine receptor
  Ki: 398 nM
D(3) dopamine receptor
  Ki: 7.94 nM

## Cn1c(SCCCN2CC3CCN(c4ccc(C(F)(F)F)cc4)C3C2)nnc1N1CCOCC1 (racemic)
D(2) dopamine receptor
  Ki: 200 nM

## Cn1c(SCCCN2CC3CCN(c4ccc(C(F)(F)F)cc4)C3C2)nnc1-c1ccccn1 (racemic)
D(2) dopamine receptor
  Ki: 398 nM

## Cn1c(SCCCN2CC3CCN(c4ccccc4)C3C2)nnc1C1CCOCC1 (racemic)
D(3) dopamine receptor
  Ki: 12.6 nM

## Cc1ncoc1-c1nnc(SCCCN2CC3CCN(c4ccc(Cl)cc4Cl)C3C2)n1C (racemic)
D(2) dopamine receptor
  Ki: 501 nM
[1]
  IC50: 1260 nM
D(3) dopamine receptor
  Ki: 5.01 nM

## Cc1ncoc1-c1nnc(SCCCN2CC3CCN(c4ccccc4)C3C2)n1C (racemic)
D(2) dopamine receptor
  Ki: 251 nM

## Cn1c(SCCCN2CC3CCN(c4ccccc4)C3C2)nnc1C1CCOCC1 (stereo in doubt; 62b)
D(3) dopamine receptor
  Ki: 25.1 nM

## Cc1ncoc1-c1nnc(SCCCN2CC3CCN(c4ccc(OC(F)(F)F)cc4)C3C2)n1C (racemic)
D(2) dopamine receptor
  Ki: 631 nM

## Cc1ncoc1-c1nnc(SCCCN2CC3CCN(c4cc(Cl)cc(Cl)c4)C3C2)n1C (racemic)
D(2) dopamine receptor
  Ki: 10 nM
[1]
  IC50: < 100 nM
D(3) dopamine receptor
  Ki: 0.398 nM

## Cn1c(SCCCN2CC3CCN(c4ccc(F)cc4)C3C2)nnc1-c1cnccn1 (racemic)
D(2) dopamine receptor
  Ki: 200 nM
D(3) dopamine receptor
  Ki: 2 nM

## Cc1ncoc1-c1nnc(SCCCN2CC3CCN(c4cccc(C#N)c4)C3C2)n1C (racemic)
D(2) dopamine receptor
  Ki: 50.1 nM

## Cn1c(SCCCN2CC3CCN(c4cccc(F)c4)C3C2)nnc1-c1cnccn1 (racemic)
D(2) dopamine receptor
  Ki: 251 nM
D(3) dopamine receptor
  Ki: 5.01 nM

## Cn1c(SCCCN2CC3CCN(c4ccc(C(F)(F)F)cc4)C3C2)nnc1C1CCCC1 (stereo in doubt; 64a)
D(3) dopamine receptor
  Ki: 0.2 nM

## Cn1c(SCCCN2CC3CCN(c4ccc(C(F)(F)F)cc4)C3C2)nnc1-c1ccncc1 (racemic)
D(2) dopamine receptor
  Ki: 398 nM
D(3) dopamine receptor
  Ki: 2 nM

## Cn1c(SCCCN2CC3CCN(c4ccc(C(F)(F)F)cc4)C3C2)nnc1-c1ccnnc1 (racemic)
D(2) dopamine receptor
  Ki: 631 nM
D(3) dopamine receptor
  Ki: 12.6 nM
